Data published in patent publication US20160008339A1, “PSORALEN DERIVATIVES FOR PREVENTING OR TREATING HEART FAILURE OR CARDIAC HYPERTROPHY” (MAX-DELBRUCK-CENTRUM FUR MOLEKULARE MEDIZIN, priority 2012, published 2016).

Legend:
[1] = tested on: 3T3 mouse fibroblasts; assay: LPA-induced stress fibre formation, TRITC-phalloidin fluorescence; format: cell-based; settings: 3T3 cells, LPA 300 nM 10 min; compound 30 μmol/L 30 min pre-treatment
Source text: For the initial analysis, 3T3 cells were used to evaluate the cellular effects of the compounds of the present invention. In these cells changes in the cytoskeleton caused by GTPase activation are well observable, because the cells have a G protein coupled receptor for LPA. A stimulation of 3T3 cells with LPA leads to an activation of RhoA and thereby to the formation of fibrillar actin filaments (F-actin, stress fibres). The participation of AKAP-Lbc as an exchange factor for RhoA within the signal transduction via a G protein of the G−12/13 family was shown.
3T3 mouse fibroblasts were seeded on 30 mm cover slips (in 6 well plates) in a cell density of 2×10^5 cells/well. […]
Following that, the cells were washed with phosphate buffer (Dulbecco's Phosphate-Buffered Saline++) and fixed in 2.5% paraformaldehyde in sodium cacodylate buffer (100 mmol/L sodium cacodylate, 100 mmol/L sucrose, pH 7.4) for 15 min. […] For the microscopic investigations, images were taken with two different fluorescence channels. […]
Without LPA stimulation no stress fibres could be identified after addition of DMSO instead of the compounds of the invention (FIG. 2A, a). […] The quantification of the stress fibre formation were performed with the software package ImageJ by the determination of the overall fluorescence of the TRITC-phalloidin. […]

[2] = tested on: GαqRC and p63RhoGEF (Gαq coupled activation of RhoA); assay: Rhotekin-based precipitation of RhoA-GTP, HEK293 transfected with GαqRC / p63RhoGEF; format: cell-based, human; settings: 50 μmol/L
Procedure: HEK293 cells were seeded in 6-well plates. One day later the cells were transfected with the following plasmid DNAs:
After additional 24 hours the cells were treated with compound 31413 (50 μmol/L) or DMSO for 30 min at 37° C. Subsequently, the cells were lysed in precipitation buffer (50 mM Tris pH 7.4, 150 mmol/L NaCl, 4 mmol/L MgCl2; 10% v/v glycerol, 1% octylphenoxypolyethoxyethanol [IPEGAL]) and centrifugated 20000 g for two minutes to remove cell debris. 40 μl of the lysate were taken for the determination of the total RhoA content. The residual lysate was incubated with 40 μl GSH-sepharose coupled GST-rhotekin for one hour at 4° C. Then, the GSH-sepharose was washed twice with precipitation buffer, enriched with SDS-PAGE loading buffer and heated 5 min at 90° C. […] The ratio between total RhoA and Rho-GTP was densitometrically determined.
The activation state of RhoA was determined with a Rho binding region of the rhotekin protein, a Rho effector, immobilised on a sepharose bead in the presence and absence of compound 31413. […]
GTP-bound RhoA was detected by rhotekin precipitation (FIG. 3). The precipitation of RhoA from transfected HEK293 cells was performed with a rhotekin sepharose, and analysed with SDS-PAGE and immunoblotting with a RhoA specific antibody. […] The precipitated RhoA-GTP was separated with SDS-PAGE, blotted and detected with a specific anti-RhoA antibody.

## COc1ccc(-c2coc3cc4oc(=O)c(C)c(C)c4cc23)cc1 [Compound 31413, 3-(4-methoxyphenyl)-5,6-dimethyl-furo[3,2-g]chromen-7-one]
[1]
  formation of stress fibres: suppression of the stress fibre formation
[2]
  precipitated amount of RhoA-GTP: no difference
